# Source: patent US20240315989A1 (priority 2021, published 2024)
# Key:
# [1] = biological target: T1, σ1 site (Homo sapiens, UniProt Q99720); details: read-out: Affinity for σ1 Site (Ki or KD values); cited from earlier work
# [2] = biological target: T1, σ1 site; details: cited from earlier work
# [3] = tested on: SARS-CoV-2 infection; assay: Retrospective cohort (BJC Healthcare): antidepressant exposure and ED or hospital encounter within 30 days; format: in vivo, human; details: for Unadjusted Odds Ratio, ED or hospital encounter within 30 days / Adjusted Odds Ratio, ED or hospital encounter within 30 days: vs No Antidepressant (Ref); for Unadjusted Odds Ratio, ED or hospital encounter within 30 days: logistic regression; for Adjusted Odds Ratio, ED or hospital encounter within 30 days: multivariable logistic regression, complete cases
# [4] = share of exposed outpatients with an encounter after a positive SARS-CoV-2 test
# T1 sequence (Q99720 whole entry): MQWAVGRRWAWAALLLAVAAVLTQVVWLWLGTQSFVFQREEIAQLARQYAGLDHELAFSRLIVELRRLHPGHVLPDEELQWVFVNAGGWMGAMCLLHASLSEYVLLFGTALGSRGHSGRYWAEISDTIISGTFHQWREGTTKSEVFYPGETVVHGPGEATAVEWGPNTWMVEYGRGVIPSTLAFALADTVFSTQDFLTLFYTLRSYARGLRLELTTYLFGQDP
Compound,Ki [1] [nM],Function on σ1 Site [2],also measured
Fc1ccc(C2=CCN(CCCCn3cncn3)CC2)cc1.O=C(O)CC(O)(CC(=O)O)C(=O)O [E-5842],< 50,Antagonist,
COc1ccc(C(CN(C)C)C2(O)CCCCC2)cc1 (stereo not shown) [venlafaxine],,,"ED or hospital encounter within 30 days, % [3, 4]: 17.1%; Unadjusted Odds Ratio, ED or hospital encounter within 30 days [3]: 1.94; Adjusted Odds Ratio, ED or hospital encounter within 30 days [3]: 0.78"
CNCC[C@H](Oc1cccc2ccccc12)c1cccs1 [Duloxetine],,,"ED or hospital encounter within 30 days, % [3, 4]: 21.8%; Unadjusted Odds Ratio, ED or hospital encounter within 30 days [3]: 2.61; Adjusted Odds Ratio, ED or hospital encounter within 30 days [3]: 0.95"
Pregnenolone sulfate,,Agonist,
CCN(CC)CCOCCOC(=O)C1(c2ccccc2)CCCC1 [Carbetapentane],< 50,Agonist,
CNCCC=C1c2ccccc2CCc2ccccc21 [Nortriptyline],,,"ED or hospital encounter within 30 days, % [3, 4]: 24.3%; Unadjusted Odds Ratio, ED or hospital encounter within 30 days [3]: 3.02; Adjusted Odds Ratio, ED or hospital encounter within 30 days [3]: 1.08"
COc1cc2c(cc1OC)C(=O)C(CC1CCN(Cc3ccccc3)CC1)C2 (stereo not shown) [Donepezil],< 50,Agonist,
CN(C)CCCN1c2ccccc2CCc2ccccc21 [imipramine],< 500,Agonist,"ED or hospital encounter within 30 days, % [3, 4]: 23.5%"
CN1CCN2c3ncccc3Cc3ccccc3C2C1 (stereo not shown) [Mirtazapine],,,"ED or hospital encounter within 30 days, % [3, 4]: 27.9%"
COc1cccc2c1CCC(=O)N2CCCN1CCN(c2cccc(Cl)c2)CC1 [OPC-14523],< 50,Agonist,
Cc1ccc2c(c1)[C@]13CCCC[C@@H]1[C@H](C2)N(C)CC3 [Dimemorfan],< 500,Agonist,
CCN(CC)C(=O)[C@@]1(c2ccccc2)C[C@H]1CN [Levomilnacipran],,,"ED or hospital encounter within 30 days, % [3, 4]: 20.0%"
N#Cc1ccc2[nH]cc(CCCCN3CCN(c4ccc5oc(C(N)=O)cc5c4)CC3)c2c1 [Vilazodone],,,"ED or hospital encounter within 30 days, % [3, 4]: 29.4%; Unadjusted Odds Ratio, ED or hospital encounter within 30 days [3]: 3.91; Adjusted Odds Ratio, ED or hospital encounter within 30 days [3]: 1.36"
Cc1cccc(/C=N/N2CCN(C(c3ccccc3)c3ccccc3)CC2)n1 [Ropizine],,Allosteric,
COCCN1CCN(C[C@H]2CCN(c3ccc(Cl)cc3)C2=O)CC1.O=C(O)C(O)C(O)C(=O)O [MS-377],< 50,Antagonist,
CN(C)CCCN1c2ccccc2CCc2ccc(Cl)cc21 [clomipramine],,,"ED or hospital encounter within 30 days, % ([3]; in vivo): 18.2%"
CN(C)CC(c1ccc(O)cc1)C1(O)CCCCC1 (stereo not shown) [Desvenlafaxine],,,"ED or hospital encounter within 30 days, % [3, 4]: 18.7%; Unadjusted Odds Ratio, ED or hospital encounter within 30 days [3]: 2.15; Adjusted Odds Ratio, ED or hospital encounter within 30 days [3]: 0.95"
NC12CC3CC(CC(C3)C1)C2 [Amantadine],,Agonist^?,
CN(C)CCN(C)CCc1ccc(Cl)c(Cl)c1 [BD 1047],,Antagonist,
CCCN1CCC[C@H](c2cccc(O)c2)C1 [(+)-3-PPP],,Agonist,
CNC(C)Cc1ccc2c(c1)OCO2 (stereo not shown) [MDMA],< 10000,,
Cc1ccc(Sc2ccccc2N2CCNCC2)c(C)c1 [Vortioxetine],,,"ED or hospital encounter within 30 days, % [3, 4]: 14.3%; Unadjusted Odds Ratio, ED or hospital encounter within 30 days [3]: 1.56; Adjusted Odds Ratio, ED or hospital encounter within 30 days [3]: 0.58"
C#CCN(C)CCCOc1ccc(Cl)cc1Cl [Clorgyline],< 50,Agonist^?,
OC1(c2ccc(Cl)cc2)CCNCC1 [Haloperidol Metabolite I],< 500,Antagonist,
CNCCCN1c2ccccc2CCc2ccccc21 [desipramine],,,"ED or hospital encounter within 30 days, % [3, 4]: 10.0%; Unadjusted Odds Ratio, ED or hospital encounter within 30 days [3]: 1.04; Adjusted Odds Ratio, ED or hospital encounter within 30 days [3]: 0.24"
"COC(=O)C1(c2ccc(C)cc2)CC1CN1CCC(O)(c2ccccc2)CC1 (single isomer, unassigned; (+)) [(+)-MR 200]",< 50,Antagonist,

Compound,Ki [1] [nM],Function on σ1 Site [2],also measured
OC(CCCN1CCN(c2ncc(F)cn2)CC1)c1ccc(F)cc1 (stereo not shown) [BMY 14802],,Antagonist,
O=C(NC1CCN(Cc2ccccc2)CC1)c1ccc(I)cc1 [4-IBP],< 50,Agonist,
CCc1nn(CCCN2CCN(c3cccc(Cl)c3)CC2)c(=O)n1CCOc1ccccc1 [Nefazodone],,,"ED or hospital encounter within 30 days, % [3, 4]: 0.0%"
CC12CC3CC(C)(C1)CC(N)(C3)C2 [Memantine],< 10000,Agonist^?,
O=c1n(CCCN2CCN(c3cccc(Cl)c3)CC2)nc2ccccn12 [Trazodone],,,"ED or hospital encounter within 30 days, % [3, 4]: 22.6%; Unadjusted Odds Ratio, ED or hospital encounter within 30 days [3]: 2.74; Adjusted Odds Ratio, ED or hospital encounter within 30 days [3]: 0.99"
CN1CCN(CCc2ccc(Cl)c(Cl)c2)CC1 [BD 1063],< 50,Antagonist,
"COc1ccc(N2C[C@H](CN3CCC(O)(c4ccc5c(c4)OCO5)CC3)OC2=O)cc1 [Panamesine (EMD 57445), Panamesine]",< 50,Antagonist,
CN[C@@H](C)Cc1ccccc1 [Metamphetamine],< 10000,,
"CC(C)=CCN1CCC2(C)c3cc(O)ccc3CC1C2C (single isomer, unassigned; (+)) [(+)-Pentazocine]",,Agonist,
"CCC(C/C=C/c1ccccc1)(c1ccccc1)N(C)CC1CC1 (stereo not shown) [JO-1784 (Igmesine), Igmesine]",< 50,Agonist,
CN(C)CCCC1(c2ccc(F)cc2)OCc2cc(C#N)ccc21 (stereo not shown) [citalopram],,,"ED or hospital encounter within 30 days, % [3, 4]: 15.8%"
COC(=O)[C@H]1[C@@H](OC(=O)c2ccccc2)C[C@@H]2CC[C@H]1N2C [Cocaine],< 10000,,
C[C@]12CC[C@H](OS(=O)(=O)O)CC1=CC[C@@H]1[C@@H]2CC[C@]2(C)C(=O)CC[C@@H]12 [DHEAS],< 10000,Agonist,
"O=C1NC(=O)C(c2ccccc2)(c2ccccc2)N1 [Phenytoin (DPH), Phenytoin]",,Allosteric,
O=C(OCCN1CCOCC1)C1(c2ccccc2)CCCCC1 [PRE 084],,Agonist,
CNc1cc(OC)c(C(=O)NC2CCN(Cc3ccccc3)C2C)cc1Cl (stereo not shown) [Nemonapride],< 50,,
S=C=Nc1cccc(C2(N3CCCCC3)CCCCC2)c1 [Metaphit],< 500,Irreversible,
CC(NC(C)(C)C)C(=O)c1cccc(Cl)c1 (stereo not shown) [bupropion],,,"ED or hospital encounters within 30 days, % ([3]; <20 mg fluoxetine-equivalent daily): 13.9%; ED or hospital encounter within 30 days, % [3, 4]: 14.3%; ED or hospital encounters within 30 days, % ([3]; ≥20 mg fluoxetine-equivalent daily): 15.0%; ED or hospital encounters within 30 days, % ([3]; ≥40 mg fluoxetine-equivalent daily): 20.0%"
CN(C)CCC=C1c2ccccc2COc2ccccc21 [Doxepin],,,"ED or hospital encounter within 30 days, % [3, 4]: 27.5%; Unadjusted Odds Ratio, ED or hospital encounter within 30 days [3]: 3.55; Adjusted Odds Ratio, ED or hospital encounter within 30 days [3]: 1.10"
CC(=O)[C@H]1CC[C@H]2[C@@H]3CCC4=CC(=O)CC[C@]4(C)[C@H]3CC[C@]12C [Progesterone],,Antagonist,
"CC(C)=CCN1CCC2(C)c3cc(O)ccc3CC1C2C (single isomer, unassigned; (-)) [(−)-Pentazocine]",,Agonist,
"OC(CN1CCC(Cc2ccc(F)cc2)CC1)c1ccc(Cl)cc1 (stereo not shown) [Eliprodil (SL-82.0715), Eliprodil]",< 500,,
CCCN(CCC)CCc1ccc(OC)c(OCCc2ccccc2)c1 [NE-100],,Antagonist,
OC(CCCN1CCC(O)(c2ccc(Cl)cc2)CC1)c1ccc(F)cc1 (stereo not shown) [Haloperidol Metabolite II],,Irreversible,
"C[C@@H]1CN(CCCn2c3ccccc3c3ccccc32)C[C@H](C)N1 [Rimcazole (BW-234U), Rimcazole]",,Antagonist,
O=C(CC1CCN(CC2CC2)CC1)c1ccc(F)cc1 [Dup 734],< 50,,
